Measured values from US20040024038A1, “GABA enhancers in the treatment of diseases relating to reduced neurosteroid activity” (H. Lundbeck A/S, priority 2000, published 2004).
“Also recorded” adds a separate entry of the source.

How the values were obtained:
[1] = system: Female mice; assay: Elevated plus maze in progesterone withdrawal (PWD) model of PMS; assay type: in vivo; conditions: for Time Open Arm, Mean / Grid Cross, Mean (number of total grid crosses, general locomotor activity) / Time Outside Rail, Mean: THIP 1.25 mg/kg; for Time Open Arm, Mean: tested 40 minutes after injection, 10 min plus maze; for Grid Cross, Mean (number of total grid crosses, general locomotor activity) / Time Outside Rail, Mean: 40 minutes after injection
Protocol: The described model is a hormone withdrawal model of PMS in the rat, based on the prevailing hypothesis that dysphoric mood is predominantly associated with declining hormone levels (i.e., “hormone withdrawal”) in women with PMS.
Female mice (Charles River) were housed in pairs under a 14 hour light and 10 hour dark cycle with food and water ad libitum. All animals were tested during the light portion of the circadian cycle. In female mice, estrous cycle stage was determined by microscopic examination of the vaginal lavage, as described previously (Smith, 1987) and by measures of vaginal impedance (Bartlewski, 1999; Bartos, 1977; Koto, 1987; Koto, 1987) throughout one entire cycle prior to testing. Only females in diestrous were used as subjects.
Progesterone implants were made from silicone tubing (Nalgene Co, 1/16″i.d×1/8″ o.d.) which was cut to size depending on the body weight of the animal (10 mm tubing per 100 g), filled with crystalline progesterone and sealed with silastic medical adhesive (Dow Corning). The sealed capsules were incubated overnight in a solution containing 1% gelatine and 0.9% saline in a water bath (37° C.) with gentle shaking overnight. Sham implants are empty sealed tubes of the same dimensions. Rats were then anesthestized with 2% halothane (2-bromo-2-chloro-1,1,1-trifluroethane) in oxygen and the capsules implanted subcutaneously in the abdomen. Removal of the implants also occurred under the same regime of halothane anesthesia, and implanted s.c. under anesthesia in the abdominal area of the rat (Smith, 1998; Moran, 1998) for 21 days.
Control animals were implanted exactly the same way with empty (sham) silicone capsules. Animals were either sacrificed or tested 24 hrs after removal of the implant (P withdrawal).
On the day of testing, animals were injected with either THIP (1.25 mg/kg) or saline and tested 40 minutes after the injection.
Mice were tested on the plus maze, elevated 50 cm above the floor, in a room with low, indirect incandescent lighting and low noise levels. The plus maze consists of 2 enclosed arms (50×10×40 cm) and 2 open arms (50×10 cm) and is explained in detail in (Pellow, 1985).
The floor of all four arms was marked with grid lines every 25 cm. On the day of testing, each mouse was placed in the testing room for 30-40 minutes prior to testing in order to acclimatise to the situations. At the time of testing, each animal was tested for 10 minutes after exiting a start box in the centre platform of the plus maze. To be considered as an entry into any arm, the mouse must pass the line of the open platform with all four paws. The duration (in seconds) of time spent in the open arm was recorded from the time of entry into the open arm. Decreased time spent in the open arm generally indicates higher levels of anxiety (Pellow, 1985). Other behavioural measures recorded included the duration of time spent (in seconds) beyond the rail. The amount of time that subjects spend in the open portion of the plus maze in the absence of rails is considered to be more sensitive to anxiolytic agents (i.e. agents that would increase the amount of time spent in the open arm) than the amount of time spent in the open arms with rails (Fernandes, 1996). In order to measure general locomotor activity, the number of total grid crosses was counted. Lastly, the duration of time (in sec) spent grooming was also scored. The experimenter was blind to all conditions, and animals were tested in a randomised block design.
Data from the plus maze were analysed in a 2-way ANOVA (implant condition×injection condition) followed by a post-hoc ANOVA and post hoc t-test.

[2] = system: hippocampal cells; conditions: hippocampal cells after progesterone withdrawal; previous work; cited from earlier work
[3] = female control (sham implant) mice

SMILES: Oc1noc2c1CCNC2 [THIP, THIP (Gaboxadol)]
- Reversal of the PWD effect in the plus maze ([1]; PWD mice, dose of 1.25 mg/kg, 1.25 mg/kg): completely reversed the PWD effect; also recorded: counteract the PWD completely
- Time Open Arm, Mean ([1]; female PWD mice (24 hrs after removal of progesterone implant)): 157.023 s
- Grid Cross, Mean (number of total grid crosses, general locomotor activity) ([1]; female PWD mice): 83.333
- Time Outside Rail, Mean ([1]; female PWD mice): 29.503 s
- Grid Cross, Mean (number of total grid crosses, general locomotor activity) [1, 3]: 52.000
- Time Outside Rail, Mean [1, 3]: 10.060 s
- Time Open Arm, Mean [1, 3]: 38.377 s

SMILES: O=C1Nc2ccc(Cl)cc2C(c2ccccc2Cl)=NC1O (centres unmarked) [lorazepam]
- Sensitivity of hippocampal cells to the GABA-potentiating effect [2]: striking insensitivity
